# Reference: patent publication US20040077607A1 (priority 2002, published 2004)
# Values joined by “and” are separate entries in the source; they are usually repeats but may differ in a detail not shown here. Equal entries are not always repeated. Where two headings read alike, the source gives them in different places.
# Columns and labels:
# [1] = simulated intestinal fluid, 100 μM, 37° C.
# in vivo [2] = conditions: female, Balb/c, mouse, iv, 75 mg/kg, Balb/c mice, plasma; for AUC / clearance / Cmax / Vd: after i.v. 75 mg/kg Ala-d4T-MP; for clearance: CL; for Vd: Vss; for half-life: t1/2, after i.v. 75 mg/kg Ala-d4T-MP
# in vivo [3] = conditions: female, Balb/c, mouse, po, 100 mg/kg, Balb/c mice, plasma; for AUC / Cmax / Tmax: after oral 100 mg/kg d4T-5′-[p-bromophenyl methoxyalaninyl phosphate]; for half-life: t1/2, after oral 100 mg/kg d4T-5′-[p-bromophenyl methoxyalaninyl phosphate]
# [4] = 37° C.
# [5] = not given; remark: listed apart in the source
# in vivo [6] = conditions: female, Balb/c, mouse, iv, 100 mg/kg
# [7] = after oral 100 mg/kg d4T-5′-[p-bromophenyl methoxyalaninyl phosphate], Balb/c mice, plasma; mean ± S.E.M. (in parentheses)
# [8] = after i.v. 40 mg/kg d4T, Balb/c mice, plasma; mean ± S.E.M. (in parentheses)
# [9] = tested on: Josiach strain of Lassa Virus; parameters: species or system CBA mice; conditions: mouse, in vivo
# [10] = female, Balb/c, mouse, in vivo, iv
# [11] = in vivo; cited from earlier work
# [12] = mouse, in vivo; cited from earlier work
# [13] = 100 μM, mouse liver homogenate
# [14] = for mean percent hydrolysis in plasma: 250 μM
# [15] = dog, in vivo; cited from earlier work
# [16] = rat, in vivo; cited from earlier work
# [17] = estimate from composite pooled data
# [18] = model fit after i.v. 75 mg/kg Ala-d4T-MP, C.V. of modeling in parentheses, 75 mg/kg
compound,measurement,setting,value
"Cc1cn([C@H]2C=C[C@@H](COP(=O)(O)N[C@@H](C)C(=O)O)O2)c(=O)[nH]c1=O [Ala-d4T-MP, alaninyl-d4T-monophosphate]",stability in intestinal fluid,[1],stable
same,stability in plasma,"100 μM, for 1 day",stable
same,AUC,in vivo [2]; [17],194 µM·h
same,AUC,in vivo [2]; mean ± S.E.M. (in parentheses),196 µM·h
same,clearance,in vivo [2]; [17],15.8 mL/min/kg
same,clearance,in vivo [2]; mean ± S.E.M. (in parentheses),15.7 mL/min/kg
same,Cmax,in vivo [2]; [17],1210 µM
same,Cmax,in vivo [2]; mean ± S.E.M. (in parentheses),1660 µM
same,Vd,in vivo [2]; [17],0.276 L/kg
same,Vd,in vivo [2]; mean ± S.E.M. (in parentheses),0.413 L/kg
same,half-life,in vivo [2]; [17],28.5 min
same,half-life,in vivo [2]; mean ± S.E.M. (in parentheses),91.5 min
same,AUC,in vivo [3]; [17],22.5 µM·h
same,AUC,in vivo [3]; mean ± S.E.M. (in parentheses),22.6 µM·h
same,Cmax,in vivo [3]; [17],12.7 µM
same,Cmax,in vivo [3]; mean ± S.E.M. (in parentheses),15.6 µM
same,half-life,in vivo [3]; [17],66.4 min
same,half-life,in vivo [3]; mean ± S.E.M. (in parentheses),56.1 min
same,Tmax,in vivo [3]; [17],10.3 min
same,Tmax,in vivo [3]; mean ± S.E.M. (in parentheses),9.3 min
same,stability in whole blood,"[4]; 100 μM, for 1 day",stable
same,CLm1 as share of the total systemic clearance,[5]; after i.v. 75 mg/kg Ala-d4T-MP,99%
same,fraction converted to d4T,[5]; after intravenous administration of Ala-d4T-MP,15%
same,CLml (metabolic clearance of Ala-d4T-MP / formation clearance of d4T),[5]; [18],15.6 ml/min/kg and 15.6 (16.6%) ml/min/kg
same,CLpd (distribution of Ala-d4T-MP to the extravascular compartment),[5]; [18],4.7 ml/min/kg and 4.7 (44.7%) ml/min/kg
same,AUC,in vivo [6]; AUC,47.6 µM·h
same,Cmax,in vivo [6]; Cmax,67.4 µM
same,half-life,in vivo [6]; t1/2,129 min
same,Tmax,in vivo [6]; tmax,5.9 min
"Cc1cn([C@H]2C=C[C@@H](CO)O2)c(=O)[nH]c1=O [d4T, 2′,3′-didehydro-2′,3′-dideoxythymidine]",AUC,[7],(5928.4 ± 294.6) μM · min
same,Cmax,[7],29.5 µM
same,Tmax,[7],(45.2 ± 5.2) min
same,t1/2,[7],(102.6 ± 3.8) min
same,AUC,[8],(12173.6 ± 559.5) μM · min
same,Tmax,"[5]; after i.v. 75 mg/kg Ala-d4T-MP, Balb/c mice, plasma, mean ± S.E.M. (in parentheses)",(5.0 ± 1.2) min
same,CLme (elimination of d4T derived from Ala-d4T-MP),[5]; [18],88.4 ml/min/kg and 88.4 (13.0%) ml/min/kg
COC(=O)C(C)NP(=O)(OC[C@@H]1C=C[C@H](n2cc(C)c(=O)[nH]c2=O)O1)Oc1ccc(Br)cc1 (stereo partly drawn) [d4T-5′-[p-bromophenylmethoxyalaninyl phosphate]],decomposed in intestinal fluid,[1]; within 2 hours,approximately 94%
same,median survival,[9],> 21 days
same,mice remaining healthy beyond the 21-day observation period,[9],9 mice
same,mice surviving beyond the 21 day observation period,[9],6 mice
same,probability of survival at 21 days,[9],75% and 90%
same,stability in plasma,250 μM,very unstable
same,time to complete decomposition in plasma,250 μM,≤ 30 min
same,decomposed following incubation with plasma,"250 μM, after 5 minutes",over 95%
same,fraction converted to Ala-d4T-MP,[10],23%
same,fraction converted to d4T,[10],24%
same,tolerability,[11],very well tolerated
same,acute or subacute toxicity,[12],very well tolerated without any detectable acute or subacute toxicity
same,toxicity on daily administration,[12],not associated with any detectable toxicity
same,stability in whole blood,[4]; 250 μM,very unstable
same,time to complete decomposition in whole blood,[4]; 250 μM,≤ 30 min
same,decomposed in whole blood,"[4]; 250 μM, 5 minutes",68%
same,decomposed in whole blood,"[4]; 250 μM, 10 minutes",87%
same,decomposed in whole blood,"[4]; 250 μM, 15 minutes",92%
same,time to decomposition after incubation with liver homogenate,[13],≤ 30 min
same,mean percent hydrolysis in plasma,"[14]; EDTA (1 mM; arylesterase), 5 min",99%
same,mean percent hydrolysis in plasma,"[14]; EDTA (1 mM; arylesterase), 10 min",100%
same,mean percent hydrolysis in plasma,"[14]; EDTA (1 mM; arylesterase), 15 min",100%
same,mean percent hydrolysis in plasma,"[14]; EDTA (1 mM; arylesterase), 30 min",100%
same,mean percent hydrolysis in plasma,"[14]; EDTA (1 mM; arylesterase), 60 min",100%
same,mean percent hydrolysis in plasma,"[14]; EDTA (1 mM; arylesterase), 120 min",100%
same,"decomposition in plasma, effect of EDTA","[14]; EDTA, 37° C.",not affected
same,mean percent hydrolysis in plasma,"[14]; No inhibitor, 5 min",95%
same,mean percent hydrolysis in plasma,"[14]; No inhibitor, 10 min",98%
same,mean percent hydrolysis in plasma,"[14]; No inhibitor, 15 min",99%
same,mean percent hydrolysis in plasma,"[14]; No inhibitor, 30 min",100%
same,mean percent hydrolysis in plasma,"[14]; No inhibitor, 60 min",100%
same,mean percent hydrolysis in plasma,"[14]; No inhibitor, 120 min",100%
same,mean percent hydrolysis in plasma,"[14]; Physostigmine (0.1 mM; cholinesterase), 5 min",43%
same,mean percent hydrolysis in plasma,"[14]; Physostigmine (0.1 mM; cholinesterase), 10 min",65%
same,mean percent hydrolysis in plasma,"[14]; Physostigmine (0.1 mM; cholinesterase), 15 min",76%
same,mean percent hydrolysis in plasma,"[14]; Physostigmine (0.1 mM; cholinesterase), 30 min",89%
same,mean percent hydrolysis in plasma,"[14]; Physostigmine (0.1 mM; cholinesterase), 60 min",100%
same,mean percent hydrolysis in plasma,"[14]; Physostigmine (0.1 mM; cholinesterase), 120 min",100%
same,"decomposition in plasma, effect of physostigmine","[14]; physostigmine 0.1 mM, 37° C.",partially inhibited
same,tolerability,[15],very well tolerated
same,acute or subacute toxicity,[16],very well tolerated without any detectable acute or subacute toxicity
same,toxicity on daily administration,[16],not associated with any detectable toxicity
